The source made the active and inactive calls. The rule behind the calls is not given here.
Assays:
[1] = test system: PC-12; assay: Cytotoxicity against rat PC12 cells at 0.4 to 50 uM; assay type: functional, cell-based
[2] = test system: PC-12; assay: Antioxidant activity against H2O2-induced impairment of rat PC12 cells apoptosis at 0.4 to 50 uM; assay type: functional, cell-based

| SMILES | Activity [1] | Activity [2] |
| --- | --- | --- |
| O=C(O)C1=CC[C@@H]2C(C(=O)O)=CO[C@@H](O[C@@H]3O[C@H](COC(=O)c4ccccc4)[C@@H](O)[C@H](O)[C@H]3O)[C@H]12 | inactive | inactive |
| COc1cc(C(=O)OC[C@H]2O[C@@H](O[C@@H]3OC=C(C(=O)O)[C@H]4CC=C(C(=O)O)[C@@H]34)[C@H](O)[C@@H](O)[C@@H]2O)cc(OC)c1O | inactive | inactive |
| COc1cc(/C=C/C(=O)O[C@H]2[C@H](O)[C@@H](O)[C@H](O[C@@H]3OC=C(C(=O)O)[C@H]4CC=C(C(=O)O)[C@@H]34)O[C@@H]2CO)ccc1O | inactive | inactive |
| O=C(/C=C/c1ccccc1)OC[C@H]1O[C@@H](O[C@@H]2OC=C(C(=O)O)[C@H]3CC=C(C(=O)O)[C@@H]23)[C@H](O)[C@@H](O)[C@@H]1O | inactive | inactive |
| COC(=O)C1=CC[C@@H]2C(C(=O)O)=CO[C@@H](O[C@@H]3O[C@H](CO)[C@@H](O)[C@H](O)[C@H]3O)[C@H]12 | inactive | inactive |
| COc1cc(/C=C/C(=O)OC[C@H]2O[C@@H](O[C@@H]3OC=C(C(=O)O)[C@H]4CC=C(C(=O)O)[C@@H]34)[C@H](O)[C@@H](O)[C@@H]2O)ccc1O | inactive | inactive |
| COc1cc(C(=O)O[C@@H]2[C@@H](O)[C@H](O[C@@H]3OC=C(C(=O)O)[C@H]4CC=C(C(=O)O)[C@@H]34)O[C@H](CO)[C@H]2O)ccc1O | inactive | inactive |
| O=C(O)C1=CC[C@@H]2C(C(=O)O)=CO[C@@H](O[C@@H]3O[C@H](CO)[C@@H](O)[C@H](O)[C@H]3O)[C@H]12 | inactive | inactive |
| COc1cc(C(=O)OC[C@H]2O[C@@H](O[C@@H]3OC=C(C(=O)O)[C@H]4CC=C(C(=O)O)[C@@H]34)[C@H](O)[C@@H](O)[C@@H]2O)ccc1O | inactive | inactive |

From ChEMBL document CHEMBL1157976, “Iridoid constituents of Tarenna attenuata” (J Nat Prod, 2006)
